From patent publication US8710083B2, “Pyridylphenyl compounds for inflammation and immune-related uses” (Synta Pharmaceuticals Corp., priority 2006, dated 2014) come the findings set out here.

Each structure is given as a SMILES string. Counter-ions that a name gives are not always drawn.

One assay relates to IL-2 production. Put plainly: Inhibition of IL-2 production in PHA-activated Jurkat cells (ELISA). The class given is cell-based. Conditions: Homo sapiens, Jurkat, 20 h, PHA 2.5 μg/mL, IL-2 ELISA. How it is done:
Jurkat cells were placed in a 96 well plate (0.5 million cells per well in 1% FBS medium) then a test compound of this invention was added at different concentrations. After 10 minutes, the cells were activated with PHA (final concentration 2.5 μg/mL) and incubated for 20 hours at 37° C. under CO2. The final volume was 200 μL. Following incubation, the cells were centrifuged and the supernatants collected and stored at −70° C. prior to assaying for IL-2 production. A commercial ELISA kit (IL-2 Eli-pair, Diaclone Research, Besancon, France) was used to detect production of IL-2, from which dose response curves were obtained. The IC50 value was calculated as the concentration at which 50% of maximum IL-2 production after stimulation was inhibited versus a non-stimulation control.
A word on the IC50: it is the concentration that gives 50% inhibition. Turning to `COC(=O)c1ccc(Cl)c(-c2ccc(NC(=O)c3c(F)cccc3F)nc2)c1` [Compound 6, 4-Chloro-3-[6-(2,6-difluoro-benzoylamino)-pyridin-3-yl]-benzoic acid methyl ester], the half-maximal inhibitory concentration (IC50) worked out at 6 nM. Same read-out and setting: then `COC(=O)c1ccc(C)c(-c2ccc(NC(=O)c3c(F)cccc3F)nc2)c1` [Compound 7, 3-[6-(2,6-Difluoro-benzoylamino)-pyridin-3-yl]-4-methyl-benzoic acid methyl ester], with 4 nM; and `O=C(Nc1ccc(-c2cc(-c3ncco3)ccc2Cl)cn1)c1c(F)cccc1F` [Compound 8, N-[5-(2-Chloro-5-oxazol-2-yl-phenyl)-pyridin-2-yl]-2,6-difluoro-benzamide], with 3 nM. The same measure, in the same setting: the result for `O=C(Nc1ccc(-c2cc(-c3nccs3)ccc2Cl)cn1)c1c(F)cccc1F` [Compound 10, N-[5-(2-Chloro-5-thiazol-2-yl-phenyl)-pyridin-2-yl]-2,6-difluoro-benzamide] reads 2 nM. `Cc1cc(NC(=O)c2c(F)cccc2F)ncc1-c1cccc(C(F)(F)F)c1` [Compound 14, 2,6-Difluoro-N-[4-methyl-5-(3-trifluoromethyl-phenyl)-pyridin-2-yl]-benzamide] had an IC50 of 16 nM. Compared with the last compound, the IC50 is about 8-fold higher. The same measure, in the same setting: then `Cc1nc(NC(=O)c2c(F)cccc2F)ccc1-c1cccc(C(F)(F)F)c1` [Compound 15, 2,6-Difluoro-N-[6-methyl-5-(3-trifluoromethyl-phenyl)-pyridin-2-yl]-benzamide], with 98 nM; and `Cc1nnsc1C(=O)Nc1ccc(-c2cc(C(F)(F)F)ccc2Cl)cn1` [Compound 16, 4-Methyl-[1,2,3]thiadiazole-5-carboxylic acid [5-(2-chloro-5-trifluoromethyl-phenyl)-pyridin-2-yl]-amide], with 15 nM.

The compound `Cc1nnsc1C(=O)Nc1ccc(-c2cc(-c3nccs3)ccc2Cl)cn1` [Compound 17, 4-Methyl-[1,2,3]thiadiazole-5-carboxylic acid [5-(2-chloro-5-thiazol-2-yl-phenyl)-pyridin-2-yl]-amide] displayed an IC50 of 2 nM. Still for that read-out and setting: then `Cc1ccc(-c2ncco2)cc1-c1ccc(NC(=O)c2snnc2C)nc1` [Compound 18, 4-Methyl-[1,2,3]thiadiazole-5-carboxylic acid [5-(2-methyl-5-oxazol-2-yl-phenyl)-pyridin-2-yl]-amide], with 12 nM; and `Cc1nnsc1C(=O)Nc1ccc(-c2cc(-c3ncco3)ccc2Cl)cn1` [Compound 19, 4-Methyl-[1,2,3]thiadiazole-5-carboxylic acid [5-(2-chloro-5-oxazol-2-yl-phenyl)-pyridin-2-yl]-amide], with 7 nM; and `Cc1ccc(-c2ncco2)cc1-c1ccc(NC(=O)c2c(F)cccc2F)cn1` [Compound 20, 2,6-Difluoro-N-[6-(2-methyl-5-oxazol-2-yl-phenyl)-pyridin-3-yl]-benzamide hydrochloride], with 12 nM. Still for that read-out and setting: then `Cc1ccc(-c2cnco2)cc1-c1ccc(NC(=O)c2snnc2C)nc1` [Compound 21, 4-methyl-N-(5-(2-methyl-5-(oxazol-5-yl)phenyl)pyridin-2-yl)-1,2,3-thiadiazole-5-carboxamide], with 31 nM. Still for that read-out and setting: then `COc1ccc(-c2cnco2)cc1-c1ccc(NC(=O)c2snnc2C)nc1` [Compound 67, N-(5-(2-methoxy-5-(oxazol-5-yl)phenyl)pyridin-2-yl)-4-methyl-1,2,3-thiadiazole-5-carboxamide], with 7 nM. In the case of `Cc1ccc(-c2ccno2)cc1-c1ccc(NC(=O)c2snnc2C)nc1` [Compound 68, N-(5-(5-(isoxazol-5-yl)-2-methylphenyl)pyridin-2-yl)-4-methyl-1,2,3-thiadiazole-5-carboxamide], 38 nM corresponded to half-maximal inhibition (IC50).

The compound `Cc1ccc(-c2nnco2)cc1-c1ccc(NC(=O)c2c(F)cccc2F)nc1` [Compound 69, 2,6-difluoro-N-(5-(2-methyl-5-(1,3,4-oxadiazol-2-yl)phenyl)pyridin-2-yl)benzamide] had an IC50 of 73 nM. Still for that read-out and setting: the result for `Cc1ccc(-c2cnco2)cc1-c1ccc(NC(=O)c2c(F)cccc2F)nc1` [Compound 70, 2,6-difluoro-N-(5-(2-methyl-5-(oxazol-5-yl)phenyl)pyridin-2-yl)benzamide] reads 9 nM; that for `O=C(Nc1ccc(-c2cc(-c3nnco3)ccc2Cl)cn1)c1c(F)cccc1F` [Compound 71, N-(5-(2-chloro-5-(1,3,4-oxadiazol-2-yl)phenyl)pyridin-2-yl)-2,6-difluorobenzamide], 17 nM; that for `O=C(Nc1ccc(-c2cc(-c3nccs3)ccc2Cl)nc1)c1c(F)cccc1F` [Compound 72, N-(6-(2-chloro-5-(thiazol-2-yl)phenyl)pyridin-3-yl)-2,6-difluorobenzamide], 17 nM. Same read-out and setting: then `Cc1ccc(-c2nccs2)cc1-c1ccc(NC(=O)c2c(F)cccc2F)cn1` [Compound 74, 2,6-Difluoro-N-(6-(2-methyl-5-(thiazol-2-yl)phenyl)pyridin-3-yl)benzamide], with 25 nM. The same measure, in the same setting: then `Cc1ccc(-c2nnco2)cc1-c1ccc(NC(=O)c2c(F)cccc2F)cn1` [Compound 75, 2,6-Difluoro-N-(6-(2-methyl-5-(1,3,4-oxadiazol-2-yl)phenyl)pyridin-3-yl)benzamide], with 98 nM; and `O=C(Nc1ccc(-c2cc(-c3ncco3)ccc2Cl)nc1)c1c(F)cccc1F` [Compound 76, N-(6-(2-chloro-5-(oxazol-2-yl)phenyl)pyridin-3-yl)-2,6-difluorobenzamide], with 9 nM.

`Cc1ccc(-c2cnco2)cc1-c1ccc(NC(=O)c2c(F)cccc2F)cn1` [Compound 78, 2,6-Difluoro-N-(6-(2-methyl-5-(oxazol-5-yl)phenyl)pyridin-3-yl)benzamide] returned an IC50 of 10 nM. The same measure, in the same setting: then `Cc1ccc(-c2ncco2)cc1-c1ccc(NC(=O)c2ccc(Cl)cc2F)cn1` [Compound 80, 4-chloro-2-fluoro-N-(6-(2-methyl-5-(oxazol-2-yl)phenyl)pyridin-3-yl)benzamide], with 180 nM.

The same assay, now with this note: PHA 2.5 μg/mL, 20 hours, IL-2 ELISA.
The compound `Cc1ccc(-c2ncco2)cc1-c1ccc(NC(=O)c2c(F)cccc2F)cn1` [Compound 13, 2,6-Difluoro-N-[6-(2-methyl-5-oxazol-2-yl-phenyl)-pyridin-3-yl]-benzamide] yielded a 50% inhibitory concentration (IC50) of 14 nM. Same read-out and setting: then `O=C(Nc1ccc(-c2cc(-c3ncco3)ccc2Cl)nc1)c1c(F)cccc1F` [Compound 77, N-(6-(2-chloro-5-(oxazol-2-yl)phenyl)pyridin-3-yl)-2,6-difluorobenzamide hydrochloric acid salt], with 11 nM.
